PubChem BioAssay (NCI)
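How tested: cells in 96-well plates exposed to compound for 48 hours at five concentrations. TGI denotes the concentration required for complete inhibition of growth.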

Experiments:
Assay in all cases: NCI tumour cell line growth inhibition, 48 h
[1] = tested on: NCI-H226 lung
[2] = tested on: A498 renal
[3] = tested on: HOP-18 NSCLC
[4] = tested on: K-562 leukemia
[5] = tested on: UACC-62 melanoma
[6] = tested on: SNB-75 CNS
[7] = tested on: XF 498 CNS
[8] = tested on: COLO 205 colon
[9] = tested on: LOX IMVI melanoma
[10] = tested on: U251 CNS
[11] = tested on: NCI-H460 lung
[12] = tested on: 786-0 renal
[13] = tested on: M14 melanoma
[14] = tested on: SF-268 CNS
[15] = tested on: MALME-3M melanoma
[16] = tested on: OVCAR-3 ovarian
[17] = tested on: HT29 colon
[18] = tested on: TK-10 renal
[19] = tested on: ACHN renal
[20] = tested on: RXF 393 renal
[21] = tested on: SK-OV-3 ovarian
[22] = tested on: KM20L2 colon
[23] = tested on: NCI-H522 lung
[24] = tested on: OVCAR-4 ovarian
[25] = tested on: SNB-19 CNS
[26] = tested on: HCT-116 colon
[27] = tested on: IGROV1 ovarian
[28] = tested on: HOP-92 NSCLC
[29] = tested on: MOLT-4 leukemia
[30] = tested on: A549 NSCLC
[31] = tested on: OVCAR-5 ovarian
[32] = tested on: SW-620 colon
[33] = tested on: SN12C renal
[34] = tested on: UO-31 renal
[35] = tested on: CCRF-CEM leukemia
[36] = tested on: LXFL 529 NSCLC
[37] = tested on: SF-295 CNS
[38] = tested on: HOP-62 NSCLC
[39] = tested on: DMS 273 small cell lung
[40] = tested on: HL-60(TB) leukemia
[41] = tested on: SK-MEL-2 melanoma
[42] = tested on: SK-MEL-28 melanoma
[43] = tested on: OVCAR-8 ovarian
[44] = tested on: EKVX NSCLC
[45] = tested on: DMS 114 small cell lung
[46] = tested on: UACC-257 melanoma
[47] = tested on: HCT-15 colon
[48] = tested on: RPMI-8226 leukemia
[49] = tested on: RXF-631 renal
[50] = tested on: DLD-1 colon
[51] = tested on: M19-MEL melanoma
[52] = tested on: SF-539 CNS
[53] = tested on: NCI-H23 lung
[54] = tested on: SR leukemia
[55] = tested on: SNB-78 CNS
[56] = tested on: CAKI-1 renal
[57] = tested on: KM12 colon
[58] = tested on: SK-MEL-5 melanoma
[59] = tested on: HCC-2998 colon

Measured: TGI

CCC1(CC)C(=O)NC(=S)N=C1N
not listed: [54] | [55] | [56] | [57] | [58] | [59]
> 100 µM: all other assays above

COc1ccc(C(=O)C(C(=O)CCC(=O)Nc2cccc(C(F)(F)F)c2)c2ccccc2)cc1 (centres undefined)
not listed: [9] | [20] | [49]
> 100 µM: all other assays above
